We go through 26 compounds from US11453660B2, “Androgen receptor and glucocorticoid receptor modulators” (ONCOSTELLAE, S.L., priority 2017, dated 2022).

Usually IC50 stands for the concentration at which inhibition is half-maximal. A lower IC50 goes with greater potency in that assay.

For the assay, the target named is T1, Human Glucocorticoid Receptor (Homo sapiens, UniProt P04150).
T1 construct: endogenous in cells; host or cells: cytosol from IM-9 cell line
T1 sequence (P04150 1-777): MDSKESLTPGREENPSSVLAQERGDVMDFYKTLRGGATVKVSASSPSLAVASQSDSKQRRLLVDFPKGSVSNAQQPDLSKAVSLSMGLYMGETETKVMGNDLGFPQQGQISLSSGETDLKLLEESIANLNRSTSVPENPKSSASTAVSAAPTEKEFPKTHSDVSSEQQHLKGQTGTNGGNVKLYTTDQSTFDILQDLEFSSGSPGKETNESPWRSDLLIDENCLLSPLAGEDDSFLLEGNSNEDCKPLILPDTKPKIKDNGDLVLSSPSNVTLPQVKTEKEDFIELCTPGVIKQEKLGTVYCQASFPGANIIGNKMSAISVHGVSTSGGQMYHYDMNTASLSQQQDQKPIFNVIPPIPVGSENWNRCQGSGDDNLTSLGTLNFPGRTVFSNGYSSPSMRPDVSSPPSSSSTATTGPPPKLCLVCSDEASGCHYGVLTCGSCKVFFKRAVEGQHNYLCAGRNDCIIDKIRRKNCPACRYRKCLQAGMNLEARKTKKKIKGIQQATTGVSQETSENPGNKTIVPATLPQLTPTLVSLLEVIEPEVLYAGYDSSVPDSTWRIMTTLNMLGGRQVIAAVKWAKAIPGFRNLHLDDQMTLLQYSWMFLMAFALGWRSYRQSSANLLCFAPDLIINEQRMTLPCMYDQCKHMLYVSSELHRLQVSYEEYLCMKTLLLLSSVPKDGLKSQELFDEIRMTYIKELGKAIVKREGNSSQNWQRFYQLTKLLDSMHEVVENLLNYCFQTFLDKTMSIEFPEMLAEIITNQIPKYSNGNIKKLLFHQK
As to the kind of experiment: Competition Binding in IM-9 Human Glucocorticoid Receptor (GR IM-9). To be noted: cytosol from IM-9 cell line, 1.5 nM [3H]-Dexamethasone, 4° C. for 6 hours. The procedure: Competition Binding in IM-9 Human Glucocorticoid Receptor (GR IM-9)
Glucocorticoid receptor competition binding assays were carried out in a polypropilene 96-well plate. In each well was incubated 100 μg of cytosol from IM-9 cell line, 1.5 nM [3H]-Dexamethasone (71 Ci/mmol, 1 mCi/ml, Perkin Elmer NET1192001MC) and compounds studied and standard. Non-specific binding was determined in the presence of Triamcinolone 10 μM (Sigma Aldrich T6376).
The reaction mixture (Vt: 200 μl/well) was incubated at 4° C. for 6 hours, 180 μL was transferred to GF/B 96-well plate (Millipore, Madrid, Spain) pretreated with 0.5% of PEI and treated with binding buffer (TES 10 mM, sodium molybdate 10 mM, EDTA 1 mM, pH 7.4, 2-mercaptoethanol 20 mM, Glycerol 10%) after was filtered and washed six times with 250 μl wash buffer (TES 10 mM, sodium molybdate 10 mM, EDTA 1 mM, pH 7.4, 2-mercaptoethanol 20 mM Glycerol 10%), before measuring in a microplate beta scintillation counter (Microbeta Trilux, PerkinElmer, Madrid, Spain).
Consider `CC(=O)C1=C(C)NC(C)=C(C(=O)OCc2ccncc2F)C1c1csc2ncccc12` (centres unmarked) [Example C68, (3-fluoropyridin-4-yl)methyl 5-acetyl-2,6-dimethyl-4-(thieno[2,3-b]pyridin-3-yl)-1,4-dihydropyridine-3-carboxylate], for which the IC50 is ≥ 1000 nM.
As for `CC(=O)C1=C(C)NC(C)=C(C(=O)OCc2ccnc(Cl)c2)C1c1csc2ncccc12` (centres unmarked) [Example C77, (2-chloropyridin-4-yl)methyl 5-acetyl-2,6-dimethyl-4-(thieno[2,3-b]pyridin-3-yl)-1,4-dihydropyridine-3-carboxylate], the figure is 100 to 1000 nM; as for `CC(=O)C1=C(C)NC(C2CC2)=C(C(=O)OC2COC2)C1c1csc2c(Br)cccc12` (centres unmarked) [Example C81, Oxetan-3-yl 5-acetyl-4-(7-bromobenzo[b]thiophen-3-yl)-2-cyclopropyl-6-methyl-1,4-dihydropyridine-3-carboxylate], < 100 nM; as for `CC(=O)C1=C(C)NC(C2CC2)=C(C(=O)OC(C)C)C1c1csc2c(Br)cccc12` (centres unmarked) [Example C82, Isopropyl 5-acetyl-4-(7-bromobenzo[b]thiophen-3-yl)-2-cyclopropyl-6-methyl-1,4-dihydropyridine-3-carboxylate], < 100 nM.
The figure for `COC(=O)C1=C(C(F)(F)F)NC(C)=C(C(C)=O)C1c1csc2c(Br)cccc12` (centres unmarked) [Example C83, Methyl 5-acetyl-4-(7-bromobenzo[b]thiophen-3-yl)-6-methyl-2-(trifluoromethyl)-1,4-dihydropyridine-3-carboxylate] is 100 to 1000 nM.
For `CC(=O)C1=C(C)NC(C2CC2)=C(C(=O)OCC2CC2)C1c1csc2c(Br)cccc12` (centres unmarked) [Example C84, Cyclopropylmethyl 5-acetyl-4-(7-bromobenzo[b]thiophen-3-yl)-2-cyclopropyl-6-methyl-1,4-dihydropyridine-3-carboxylate], the IC50 is < 100 nM.
Consider `COC(=O)C1=C(C2CC2)NC(C)=C(C(C)=O)C1c1csc2c(C(=O)C(F)(F)F)cccc12` (centres unmarked) [Example C85, Methyl 5-acetyl-2-cyclopropyl-6-methyl-4-(7-(2,2,2-trifluoroacetyl)benzo[b]thiophen-3-yl)-1,4-dihydropyridine-3-carboxylate], for which the IC50 was ≥ 1000 nM.
`CC(=O)C1=C(C)NC(C)=C(C(=O)OC(C)(C)c2ccccc2)C1c1csc2c(Br)cccc12` (centres unmarked) [Example C86, 2-phenylpropan-2-yl 5-acetyl-4-(7-bromobenzo[b]thiophen-3-yl)-2,6-dimethyl-1,4-dihydropyridine-3-carboxylate]: the 50% inhibitory concentration (IC50) fell in the range of 100 to 1000 nM.
With `CC(=O)C1=C(C)NC(C2CC2)=C(C(=O)OC2CCCCC2)C1c1csc2ncccc12` (centres unmarked) [Example C91, Cyclohexyl 5-acetyl-2-cyclopropyl-6-methyl-4-(thieno[2,3-b]pyridin-3-yl)-1,4-dihydropyridine-3-carboxylate], the IC50 is < 100 nM.
The figure for `CC(=O)C1=C(C)NC(C2CC2)=C(C(=O)OC(C)(C)c2ccccc2)C1c1csc2ncccc12` (centres unmarked) [Example C92, 2-phenylpropan-2-yl 5-acetyl-2-cyclopropyl-6-methyl-4-(thieno[2,3-b]pyridin-3-yl)-1,4-dihydropyridine-3-carboxylate] is < 100 nM.
The figure for `CC(=O)C1=C(C)NC(C2CC2)=C(C(=O)C2CC2)C1c1csc2c(Br)cccc12` (centres unmarked) [Example C93, 1-(4-(7-Bromobenzo[b]thiophen-3-yl)-5-(cyclopropanecarbonyl)-6-cyclopropyl-2-methyl-1,4-dihydropyridin-3-yl)ethan-1-one] is 100 to 1000 nM.
`CC(=O)C1=C(C)NC(C2CC2)=C(C(=O)OCc2cccc(Cl)c2)C1c1csc2ncccc12` (centres unmarked) [Example C94, 3-chlorobenzyl 5-acetyl-2-cyclopropyl-6-methyl-4-(thieno[2,3-b]pyridin-3-yl)-1,4-dihydropyridine-3-carboxylate]: the IC50 is < 100 nM.
As for `CC(=O)C1=C(C)NC(C)=C(C(=O)OC(C)(C)c2ccc(F)cc2)C1c1csc2ncccc12` (centres unmarked) [Example C95, 2-(4-fluorophenyl)propan-2-yl 5-acetyl-2,6-dimethyl-4-(thieno[2,3-b]pyridin-3-yl)-1,4-dihydropyridine-3-carboxylate], the figure is < 100 nM.
The figure for `CC(=O)C1=C(C)NC(C2CC2)=C(C(=O)OC(C)(C)c2ccc(F)cc2)C1c1csc2c(Br)cccc12` (centres unmarked) [Example C96, 2-(4-fluorophenyl)propan-2-yl 5-acetyl-4-(7-bromobenzo[b]thiophen-3-yl)-2-cyclopropyl-6-methyl-1,4-dihydropyridine-3-carboxylate] is 100 to 1000 nM; for `CC(=O)C1=C(C)NC(C2CC2)=C(C(=O)OC(C)(C)c2ccc(F)cc2)C1c1csc2ncccc12` (centres unmarked) [Example C97, 2-(4-fluorophenyl)propan-2-yl 5-acetyl-2-cyclopropyl-6-methyl-4-(thieno[2,3-b]pyridin-3-yl)-1,4-dihydropyridine-3-carboxylate] it is < 100 nM.
`COC(=O)C1=C(C2CC2)NC(C)=C(C(C)=O)C1c1csc2c(F)cccc12` (centres unmarked) [Example C98, Methyl 5-acetyl-2-cyclopropyl-4-(7-fluorobenzo[b]thiophen-3-yl)-6-methyl-1,4-dihydropyridine-3-carboxylate] returned an IC50 of 100 to 1000 nM.
As for `CC(=O)C1=C(C)NC(C2CC2)=C(C(=O)OCC2CC2)C1c1csc2ncccc12` (centres unmarked) [Example C99, Cyclopropylmethyl 5-acetyl-2-cyclopropyl-6-methyl-4-(thieno[2,3-b]pyridin-3-yl)-1,4-dihydropyridine-3-carboxylate], the figure is 100 to 1000 nM.
As for `CC(=O)C1=C(C)NC(C2CC2)=C(C(=O)OC2CCCC2)C1c1csc2ncccc12` (centres unmarked) [Example C100, Cyclopentyl 5-acetyl-2-cyclopropyl-6-methyl-4-(thieno[2,3-b]pyridin-3-yl)-1,4-dihydropyridine-3-carboxylate], the IC50 is < 100 nM.
`CC(=O)C1=C(C)NC(C2CC2)=C(C(=O)OCC2CC2)C1c1csc2c(C#N)cccc12` (centres unmarked) [Example C101, Cyclopropylmethyl 5-acetyl-4-(7-cyanobenzo[b]thiophen-3-yl)-2-cyclopropyl-6-methyl-1,4-dihydropyridine-3-carboxylate]: the IC50 was < 100 nM.
Compound `COC(=O)C1=C(C2CCC2)NC(C)=C(C(C)=O)C1c1csc2c(Br)cccc12` (centres unmarked) [Example C102, Methyl 5-acetyl-4-(7-bromobenzo[b]thiophen-3-yl)-2-cyclobutyl-6-methyl-1,4-dihydropyridine-3-carboxylate] returned an IC50 of 100 to 1000 nM.
As for `COC(=O)C1=C(C)NC(C2CC2)=C(C(=O)OC)C1c1csc2c(C#N)cccc12` (centres unmarked) [Example C103, Dimethyl 4-(7-cyanobenzo[b]thiophen-3-yl)-2-cyclopropyl-6-methyl-1,4-dihydropyridine-3,5-dicarboxylate], the figure is < 100 nM; as for `COC(=O)C1=C(C2CC2)NC(C)=C(C#N)C1c1csc2c(C#N)cccc12` (centres unmarked) [Example C104, Methyl 5-cyano-4-(7-cyanobenzo[b]thiophen-3-yl)-2-cyclopropyl-6-methyl-1,4-dihydropyridine-3-carboxylate], < 100 nM; as for `COC(=O)C1=C(C2CCCC2)NC(C)=C(C(C)=O)C1c1csc2c(Br)cccc12` (centres unmarked) [Example C105, Methyl 5-acetyl-4-(7-bromobenzo[b]thiophen-3-yl)-2-cyclopentyl-6-methyl-1,4-dihydropyridine-3-carboxylate], 100 to 1000 nM.
As for `COC(=O)C1=C(C2CCCCC2)NC(C)=C(C(C)=O)C1c1csc2c(Br)cccc12` (centres unmarked) [Example C106, Methyl 5-acetyl-4-(7-bromobenzo[b]thiophen-3-yl)-2-cyclohexyl-6-methyl-1,4-dihydropyridine-3-carboxylate], the figure is 100 to 1000 nM; as for `COC(=O)C1=C(C)NC(C2CC2)=C(C(=O)OCC2CC2)C1c1csc2c(C#N)cccc12` (centres unmarked) [Example C109, 3-(cyclopropylmethyl) 5-methyl 4-(7-cyanobenzo[b]thiophen-3-yl)-2-cyclopropyl-6-methyl-1,4-dihydropyridine-3,5-dicarboxylate], < 100 nM.
For the compound `COC(=O)C1=C(C2CC2)NC(C2CC2)=C(C(=O)OCC2CC2)C1c1csc2c(C#N)cccc12` (centres unmarked) [Example C110, 3-(cyclopropylmethyl) 5-methyl 4-(7-cyanobenzo[b]thiophen-3-yl)-2,6-dicyclopropyl-1,4-dihydropyridine-3,5-dicarboxylate], the IC50 is < 100 nM.
